According to PubChem BioAssay (NCI):
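All cell lines were grown in 96-well plates and treated with compound for 48 hours. Abbreviation: GI50, concentration required for 50% inhibition of growth. TGI is the concentration that stops growth completely.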

Legend:
Test in all cases: NCI tumour cell line growth inhibition, 48 h
786-0 renal = system: 786-0 renal
A498 renal = system: A498 renal
A549 NSCLC = system: A549 NSCLC
ACHN renal = system: ACHN renal
BT-549 breast = system: BT-549 breast
CAKI-1 renal = system: CAKI-1 renal
CCRF-CEM leukemia = system: CCRF-CEM leukemia
COLO 205 colon = system: COLO 205 colon
DU-145 prostate = system: DU-145 prostate
EKVX NSCLC = system: EKVX NSCLC
HCC-2998 colon = system: HCC-2998 colon
HCT-116 colon = system: HCT-116 colon
HCT-15 colon = system: HCT-15 colon
HL-60(TB) leukemia = system: HL-60(TB) leukemia
HOP-62 NSCLC = system: HOP-62 NSCLC
HOP-92 NSCLC = system: HOP-92 NSCLC
HS 578T breast = system: HS 578T breast
HT29 colon = system: HT29 colon
IGROV1 ovarian = system: IGROV1 ovarian
K-562 leukemia = system: K-562 leukemia
KM12 colon = system: KM12 colon
LOX IMVI melanoma = system: LOX IMVI melanoma
M14 melanoma = system: M14 melanoma
MALME-3M melanoma = system: MALME-3M melanoma
MCF7 breast = system: MCF7 breast
MDA-MB-231 breast = system: MDA-MB-231 breast
MDA-MB-435 = system: MDA-MB-435
MOLT-4 leukemia = system: MOLT-4 leukemia
NCI-H226 lung = system: NCI-H226 lung
NCI-H23 lung = system: NCI-H23 lung
NCI-H460 lung = system: NCI-H460 lung
NCI-H522 lung = system: NCI-H522 lung
NCI/ADR-RES ovarian = system: NCI/ADR-RES ovarian
OVCAR-3 ovarian = system: OVCAR-3 ovarian
OVCAR-4 ovarian = system: OVCAR-4 ovarian
OVCAR-5 ovarian = system: OVCAR-5 ovarian
OVCAR-8 ovarian = system: OVCAR-8 ovarian
PC-3 prostate = system: PC-3 prostate
RPMI-8226 leukemia = system: RPMI-8226 leukemia
RXF 393 renal = system: RXF 393 renal
SF-268 CNS = system: SF-268 CNS
SF-539 CNS = system: SF-539 CNS
SK-MEL-2 melanoma = system: SK-MEL-2 melanoma
SK-MEL-28 melanoma = system: SK-MEL-28 melanoma
SK-MEL-5 melanoma = system: SK-MEL-5 melanoma
SK-OV-3 ovarian = system: SK-OV-3 ovarian
SN12C renal = system: SN12C renal
SNB-19 CNS = system: SNB-19 CNS
SNB-75 CNS = system: SNB-75 CNS
SR leukemia = system: SR leukemia
SW-620 colon = system: SW-620 colon
T-47D breast = system: T-47D breast
TK-10 renal = system: TK-10 renal
U251 CNS = system: U251 CNS
UACC-257 melanoma = system: UACC-257 melanoma
UACC-62 melanoma = system: UACC-62 melanoma
UO-31 renal = system: UO-31 renal

SMILES: C/C(=N\NC(=O)c1ccc(C(C)(C)C)cc1)c1ccc(O)cc1O
- GI50 (786-0 renal): 985 nM
- TGI (786-0 renal): 13500 nM
- GI50 (A498 renal): 1380 nM
- TGI (A498 renal): > 100000 nM
- GI50 (A549 NSCLC): 751 nM
- TGI (A549 NSCLC): > 100000 nM
- GI50 (ACHN renal): 491 nM
- TGI (ACHN renal): > 100000 nM
- GI50 (BT-549 breast): 1830 nM
- TGI (BT-549 breast): > 65800 nM
- GI50 (CAKI-1 renal): 392 nM
- TGI (CAKI-1 renal): 4720 nM
- GI50 (CCRF-CEM leukemia): 331 nM
- TGI (CCRF-CEM leukemia): > 30900 nM
- GI50 (COLO 205 colon): 386 nM
- TGI (COLO 205 colon): > 34100 nM
- GI50 (DU-145 prostate): 705 nM
- TGI (DU-145 prostate): > 100000 nM
- GI50 (EKVX NSCLC): 442 nM
- TGI (EKVX NSCLC): > 100000 nM
- GI50 (HCC-2998 colon): 638 nM
- TGI (HCC-2998 colon): 61400 nM
- GI50 (HCT-116 colon): 298 nM
- TGI (HCT-116 colon): > 100000 nM
- GI50 (HCT-15 colon): 396 nM
- TGI (HCT-15 colon): > 100000 nM
- GI50 (HL-60(TB) leukemia): 1080 nM
- TGI (HL-60(TB) leukemia): 11100 nM
- GI50 (HOP-62 NSCLC): 484 nM
- TGI (HOP-62 NSCLC): > 100000 nM
- GI50 (HOP-92 NSCLC): 4220 nM
- TGI (HOP-92 NSCLC): > 100000 nM
- GI50 (HS 578T breast): 3260 nM
- TGI (HS 578T breast): > 100000 nM
- GI50 (HT29 colon): 689 nM
- TGI (HT29 colon): 14200 nM
- GI50 (IGROV1 ovarian): 572 nM
- TGI (IGROV1 ovarian): > 100000 nM
- GI50 (K-562 leukemia): 568 nM
- TGI (K-562 leukemia): > 100000 nM
- GI50 (KM12 colon): 511 nM
- TGI (KM12 colon): > 100000 nM
- GI50 (LOX IMVI melanoma): 318 nM
- TGI (LOX IMVI melanoma): 1920 nM
- GI50 (M14 melanoma): 532 nM
- TGI (M14 melanoma): 7340 nM
- GI50 (MALME-3M melanoma): 1140 nM
- TGI (MALME-3M melanoma): 45200 nM
- GI50 (MCF7 breast): 628 nM
- TGI (MCF7 breast): > 100000 nM
- GI50 (MDA-MB-231 breast): 791 nM
- TGI (MDA-MB-231 breast): > 100000 nM
- GI50 (MDA-MB-435): 810 nM
- TGI (MDA-MB-435): > 100000 nM
- GI50 (MOLT-4 leukemia): 344 nM
- TGI (MOLT-4 leukemia): > 100000 nM
- GI50 (NCI-H226 lung): 843 nM
- TGI (NCI-H226 lung): 14000 nM
- GI50 (NCI-H23 lung): 1180 nM
- TGI (NCI-H23 lung): > 100000 nM
- GI50 (NCI-H460 lung): 347 nM
- TGI (NCI-H460 lung): 10300 nM
- GI50 (NCI-H522 lung): 1890 nM
- TGI (NCI-H522 lung): > 100000 nM
- GI50 (NCI/ADR-RES ovarian): 416 nM
- TGI (NCI/ADR-RES ovarian): > 100000 nM
- GI50 (OVCAR-3 ovarian): 309 nM
- TGI (OVCAR-3 ovarian): > 100000 nM
- GI50 (OVCAR-4 ovarian): 306 nM
- GI50 (OVCAR-5 ovarian): 862 nM
- TGI (OVCAR-5 ovarian): > 100000 nM
- GI50 (OVCAR-8 ovarian): 673 nM
- TGI (OVCAR-8 ovarian): > 100000 nM
- GI50 (PC-3 prostate): 1080 nM
- TGI (PC-3 prostate): > 100000 nM
- GI50 (RPMI-8226 leukemia): 763 nM
- TGI (RPMI-8226 leukemia): > 59900 nM
- GI50 (RXF 393 renal): 2110 nM
- TGI (RXF 393 renal): 10200 nM
- GI50 (SF-268 CNS): 528 nM
- TGI (SF-268 CNS): > 100000 nM
- GI50 (SF-539 CNS): 648 nM
- TGI (SF-539 CNS): > 70400 nM
- GI50 (SK-MEL-2 melanoma): 2380 nM
- TGI (SK-MEL-2 melanoma): > 100000 nM
- GI50 (SK-MEL-28 melanoma): 1670 nM
- TGI (SK-MEL-28 melanoma): > 100000 nM
- GI50 (SK-MEL-5 melanoma): 1470 nM
- TGI (SK-MEL-5 melanoma): 4740 nM
- GI50 (SK-OV-3 ovarian): 1060 nM
- TGI (SK-OV-3 ovarian): > 100000 nM
- GI50 (SN12C renal): 1240 nM
- TGI (SN12C renal): > 100000 nM
- GI50 (SNB-19 CNS): 2360 nM
- TGI (SNB-19 CNS): > 100000 nM
- GI50 (SNB-75 CNS): 1270 nM
- TGI (SNB-75 CNS): 17900 nM
- GI50 (SR leukemia): 379 nM
- TGI (SR leukemia): > 62200 nM
- GI50 (SW-620 colon): 602 nM
- TGI (SW-620 colon): > 100000 nM
- GI50 (T-47D breast): 1070 nM
- TGI (T-47D breast): > 100000 nM
- GI50 (TK-10 renal): 886 nM
- TGI (TK-10 renal): > 100000 nM
- GI50 (U251 CNS): 615 nM
- TGI (U251 CNS): > 100000 nM
- GI50 (UACC-257 melanoma): 1510 nM
- TGI (UACC-257 melanoma): > 100000 nM
- GI50 (UACC-62 melanoma): 671 nM
- TGI (UACC-62 melanoma): > 100000 nM
- GI50 (UO-31 renal): 377 nM
- TGI (UO-31 renal): > 100000 nM
